Consider four compounds from PubChem BioAssay AID1963426 (Molecular Pharmacology Branch, DTP, NCI, 2024).

Several values for one entry are separate records, joined by “and”; a condition that tells them apart may be missing. Equal values may be shown once.

For the assay, the system named is 186277-243-T-J2-PDC complex spheroid growth, % test/control. Description: Anticancer human tumor 186277-243-T-J2-PDC patient-derived colon adenocarcinoma cell line growth inhibition [Asc]. Conditions: for viability, T/C: stronger effect = lower value. As to the method: Multicellular complex tumor spheroid response to apoptosis pathway targeting inhibitors Alrizomadlin, Pelcitoclax, and Dasminapant in combination with a variety of drugs and investigational agents in selected tumor cell lines
The MDM2 inhibitor alrizomadlin, the Bcl-2/Bcl-xL inhibitor pelcitoclax, and the IAPs inhibitor dasminapant were evaluated both individually and in combination with standard of care and investigational anticancer small molecules within a complex spheroid model of solid tumors. . Complex spheroids include a stromal component modeled by human endothelial cells (HUVEC) and fibroblasts modeled by human mesenchymal stem cells (MSCs). The concentration ranges selected for each drug and investigational agent were based upon clinically achievable concentrations if the clinical Cmax of the agent was known.
Compounds. The drugs and investigational agents: alrizomadlin (APG-115; NSC831270), pelcitoclax (APG-1252; NSC835773), dasminapant (APG-1387;NSC834197), TAK-243 (NSC785004), copanlisib (NSC809693), olaparib (NSC753686), talazoparib (NSC767125), cobimetinib (NSC 768068), eltanexor (KPT-8602, NSC 794443), abemaciclib (NSC 768073), sotorasib (NSC818433), adagrasib (NSC 831453), MRTX-1133 (NSC 836407), Iadademestat (ORY1001, NSC 806812), and RMC-4630 (NSC839698), were obtained from the NCI Developmental Therapeutics Program Chemical Repository. The FDA-approved anticancer drug set is available from the Developmental Therapeutics Program at https://dtp.cancer.gov/organization/dscb/obtaining/available plates.htm. […] The stock solutions were prepared in dimethyl sulfoxide (DMSO, Sigma-Aldrich, St. Louis, MO, cat. D2650) at 800-fold the tested concentration and stored at -70 degrees C prior to their use. All drugs and investigational agents were tested over a range starting from a high concentration at or near the clinical Cmax and decreasing in half-log increments. If the clinical Cmax for an agent had not been determined, the highest concentration tested was 10 microM.
The patient-derived cancer (PDC) cell lines include five colon adenocarcinomas: 186277-243-T-J2-PDC, 616215-338-R-J1-PDC, 439559-082-T-J2-PDC, 463943-066-T-J2-PDC, and 519858-162-T-J1-PDC; three pancreatic carcinomas: 323965-272-R-J2-PDC, 521955-158-R6-J3-PDC, and 521955-158-R2-J5-PDC; two uterine sarcomas: 327498-152-R-J2-PDC and 993429-296-R-J1-PDC; two rhabdomyosarcomas: 755483-174-R-J1-PDC and 772245-204-R-J1-PDC; two soft tissue sarcomas: 126254-015-R-J1-PDC and 494315-158-R-J1-PDC; two malignant fibrous histiocytomas: 317291-083-R-J1-PDC and 596521-263-R-J1-PDC; two breast carcinomas: 171881-019-R-J1-PDC and 885512-296-R-J2-PDC; and one ovarian carcinoma: 6556581-035-R-J-PDC were obtained from the NCI PDMR, (https://pdmr.cancer.gov). The established cell lines HSSY-2 synovial sarcoma (RRID:CVCL 8719), SYO-1 synovial sarcoma (RRID:CVCL_7146), MPNST malignant peripheral neural sheath tumor were obtained from the Sloan Kettering Institute. The following established cell lines were purchased from the American Type Culture Collection (ATCC, Manassas, VA), Sor the received from the NCI repository:, PANC-1 pancreatic carcinoma (CRL-1469, RRID:CVCL_0480), OVCAR-5 ovarian carcinoma (RRID:CVCL_1628), OVCAR-8 ovarian carcinoma (RRID:CVCL_1629), , MCF-7 breast carcinoma (CRL-12584, RRID:CVCL_0031), MDA-MB-231 breast carcinoma (CRL-12532, RRID:CVCL_0062), NCI-H1876 small cell lung carcinoma (CRL-5902, RRID:CVCL_1503), NCI-H510A small cell lung carcinoma (HTB-184, RRID:CVCL_1565), NCI-H1417 (CRL-5869, RRID:CVCL_1469), and NCI-H196 small cell lung carcinoma (CRL-5823, RRID:CVCL_1509). Dr. Peter Houghton (Greehey Children's Cancer Research Institute, University of Texas Health Science Center, San Antonio, TX) provided Rh-18 rhabdomyosarcoma (RRID:CVCL_1659). Pooled donor human umbilical vein endothelial cells (HUVEC, Lonza, cat. CC-2519) and human mesenchymal stem cells (hMSC, Lonza, cat. PT-2501) were purchased from Lonza (Walkersville, MD).
Cell Culture. […]

[1] abbreviates: curve of first compound, second compound 0.1 µM.
Where [2] appears, read: curve of first compound, second compound 0.316 µM.
Setting [3] is: curve of first compound, second compound 1 µM.
[4] abbreviates: second compound 0.1 µM, first compound 0.00316 µM.
Where [5] appears, read: second compound 0.1 µM, first compound 0.01 µM.
Where [6] appears, read: second compound 0.1 µM, first compound 0.0316 µM.
Where [7] appears, read: second compound 0.1 µM, first compound 0.1 µM.
[8] abbreviates: second compound 0.316 µM, first compound 0.00316 µM.
Where [9] appears, read: second compound 0.316 µM, first compound 0.01 µM.
[10] abbreviates: second compound 0.316 µM, first compound 0.0316 µM.
Setting [11] is: second compound 0.316 µM, first compound 0.1 µM.
[12] abbreviates: second compound 1 µM, first compound 0.00316 µM.
Setting [13] is: second compound 1 µM, first compound 0.01 µM.
The mark [14] stands for this setting: second compound 1 µM, first compound 0.0316 µM.
[15] abbreviates: second compound 1 µM, first compound 0.1 µM.
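Further: spheroids exposed to agents for 7 days.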
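Wherever viability, T/C is given: 100% = DMSO vehicle control wells.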

One may read the viability, T/C as the ratio of treated to control. Usually IC50 stands for the concentration that inhibits the measured activity by half. As for `C=CC(=O)N1CCN(c2nc(=O)n(-c3c(C)ccnc3C(C)C)c3nc(-c4c(O)cccc4F)c(F)cc23)C(C)C1` (centres undefined), the viability, T/C was 105% and 89.2% and 107% (compound 0.0316 µM); 92.6% and 91.2% and 95.4% (compound 0.1 µM); 92.2% and 96.7% and 90.9% (compound 0.316 µM); 102% and 99.8% and 107% (compound 1 µM); 97.3% and 94.7% and 112% (compound 3.16 µM); 114% and 102% and 97.3% (compound 10 µM). Moreover, the IC50 (curve of compound) was greater than 10000 nM.
On to `COc1c(OCCCN2CCOCC2)ccc2c3n(c(=NC(=O)c4cnc(N)nc4)nc12)CCN3`, for which the viability, T/C by setting is: (compound 0.00316 µM) 91% and 96.2% and 93.6%; (compound 0.01 µM) 102% and 91% and 105%; (compound 0.0316 µM) 58.9% and 54.5% and 69%; (compound 0.1 µM) 35.2% and 28.6% and 56.5%; (compound 0.316 µM) 17.5% and 17% and 29.3%; (compound 1 µM) 13.2% and 11.8% and 19.8%. Also, the IC50 (curve of compound) was 52.2 nM and 41.3 nM and 112 nM.
`NC1CCC(NC2CC2c2ccccc2)CC1` (centres undefined) + CNC(C)C(=O)NC1CN(S(=O)(=O)c2cccc(S(=O)(=O)N3CCC4CCC(C(=O)NC(c5ccccc5)c5ccccc5)N4C(=O)C(NC(=O)C(C)NC)C3)c2)CCC2CCC(C(=O)NC(c3ccccc3)c3ccccc3)N2C1=O: the IC50 is greater than 100 nM (curve of first compound, second compound 0.01 µM); greater than 100 nM (curve of first compound, second compound 0.0316 µM); greater than 100 nM under setting [1]; greater than 100 nM under setting [2]; greater than 100 nM under setting [3]. Moreover, the viability, T/C reads like this: (second compound 0.01 µM, first compound 0.000316 µM) 116%; (second compound 0.01 µM, first compound 0.001 µM) 105%; (second compound 0.01 µM, first compound 0.00316 µM) 109%; (second compound 0.01 µM, first compound 0.01 µM) 101%; (second compound 0.01 µM, first compound 0.0316 µM) 109%; (second compound 0.01 µM, first compound 0.1 µM) 106%. In addition, the viability, T/C was 117% (second compound 0.0316 µM, first compound 0.000316 µM); 120% (second compound 0.0316 µM, first compound 0.001 µM); 111% (second compound 0.0316 µM, first compound 0.00316 µM); 114% (second compound 0.0316 µM, first compound 0.01 µM); 102% (second compound 0.0316 µM, first compound 0.0316 µM); 91.7% (second compound 0.0316 µM, first compound 0.1 µM). The viability, T/C is 107% (second compound 0.1 µM, first compound 0.000316 µM); 115% (second compound 0.1 µM, first compound 0.001 µM); 121% under setting [4]; 111% under setting [5]; 121% under setting [6]; 109% under setting [7]. In addition, the viability, T/C (second compound 0.316 µM, first compound 0.000316 µM) was 121%; the viability, T/C (second compound 0.316 µM, first compound 0.001 µM) is 144%; the viability, T/C under setting [8] is 115%; the viability, T/C under setting [9] was 106%; the viability, T/C under setting [10] was 111%; the viability, T/C under setting [11] was 125%. Moreover, the viability, T/C was 109% (second compound 1 µM, first compound 0.000316 µM); 119% (second compound 1 µM, first compound 0.001 µM); 125% under setting [12]; 109% under setting [13]; 123% under setting [14]; 121% under setting [15].
Consider `CNC(C)C(=O)NC1CN(S(=O)(=O)c2cccc(S(=O)(=O)N3CCC4CCC(C(=O)NC(c5ccccc5)c5ccccc5)N4C(=O)C(NC(=O)C(C)NC)C3)c2)CCC2CCC(C(=O)NC(c3ccccc3)c3ccccc3)N2C1=O` (centres undefined) + Cc1c(S(C)(=O)=O)c(-c2cc(F)cc(N3CCN(c4ccc(NS(=O)(=O)c5ccc(NC(CCN6CCC(C(=O)OCCCP(=O)(O)O)CC6)CSc6ccccc6)c(S(=O)(=O)C(F)(F)F)c5)cc4)CC3)c2)c(-c2ccc(Cl)cc2)n1C(C)C, for which the half-maximal inhibitory concentration (IC50) by setting is: under setting [1], greater than 1000 nM; under setting [2], greater than 1000 nM; under setting [3], greater than 1000 nM; (curve of first compound, second compound 3.16 µM) greater than 1000 nM; (curve of first compound, second compound 10 µM) greater than 1000 nM. For the same compound, the viability, T/C by setting is: under setting [4], 99.7%; under setting [5], 108%; under setting [6], 111%; under setting [7], 106%; (second compound 0.1 µM, first compound 0.316 µM) 101%; (second compound 0.1 µM, first compound 1 µM) 110%. Moreover, the viability, T/C was 102% under setting [8]; 104% under setting [9]; 102% under setting [10]; 105% under setting [11]; 108% (second compound 0.316 µM, first compound 0.316 µM); 110% (second compound 0.316 µM, first compound 1 µM). In addition, the viability, T/C is 123% under setting [12]; 114% under setting [13]; 101% under setting [14]; 110% under setting [15]; 110% (second compound 1 µM, first compound 0.316 µM); 99.5% (second compound 1 µM, first compound 1 µM). Also, the viability, T/C was 105% (second compound 3.16 µM, first compound 0.00316 µM); 109% (second compound 3.16 µM, first compound 0.01 µM); 93.6% (second compound 3.16 µM, first compound 0.0316 µM); 109% (second compound 3.16 µM, first compound 0.1 µM); 110% (second compound 3.16 µM, first compound 0.316 µM); 104% (second compound 3.16 µM, first compound 1 µM). The viability, T/C (second compound 10 µM, first compound 0.00316 µM) is 93.6%; the viability, T/C (second compound 10 µM, first compound 0.01 µM) was 103%; the viability, T/C (second compound 10 µM, first compound 0.0316 µM) was 102%; the viability, T/C (second compound 10 µM, first compound 0.1 µM) is 109%; the viability, T/C (second compound 10 µM, first compound 0.316 µM) was 101%; the viability, T/C (second compound 10 µM, first compound 1 µM) was 107%.
